In patent publication US5821247A, “Hydroquinone derivative and pharmaceutical use thereof” (Japan Energy Corporation, priority 1996, dated 1998):

What was measured:
[1] = system: picryl chloride-induced dermatitis; test: Inhibition of picryl chloride-induced dermatitis (type IV allergic inflammation model, ear swelling, Asherson's method); assay type: in vivo, ICR male mice; conditions: applied on ear just after challenge, ear thickness at 24 h
Description: Evaluation 1: Inhibition of picryl chloride-induced dermatitis
Effect of the compounds of the present invention on picryl chloride-induceddermatitis, which is a typical model of type IV allergic inflammation, was estimated by the Asherson's method [Immunology, 15, 405 (1968)] in the following manner.
A 7% (w/v) solution of picryl chloride in acetone (0.1 mL) was applied on a portion of the abdominal skin of each of ICR male mice to sensitize the mice. After 7 days, a 1% (w/v) solution of picryl chloride in acetone (0.02 mL) was applied on the ears of the individual mice to induce allergic reaction. Just after the challenge, 0.04 mL of acetone (control) or a 0.25-2.5% (w/v) solution of the test compound in acetone was applied on the ear. Increase of the ear thickness of the individual mice was measured at 24 h after the challenge, and inhibitory effect of the test compound on the dermatitis was estimated based on the difference in ear thickness between before and after the induction of the allergic reaction.

[2] = system: albumin-induced asthma; test: Inhibition of albumin-induced asthma (air way resistance, double flow plethysmography); assay type: in vivo, Hartley male guinea pigs; conditions: 100 mg/kg, orally 1 h before and 3 h after the challenge
Description: Evaluation 2: Inhibition of albumin-induced asthma
Effect of the compounds of the present invention on albumin-induced asthma was estimated in the following manner.
Inhalation of 1% ovalbumin using ultrasonic nebulizer into Hartley male guinea pigs was performed 10 min/day over 8 days to sensitize the guinea pigs. One week after the last sensitization, inhalation of 2% ovalbumin was performed for 5 min. to induce allergic reaction. Metyrapone (10 mg/kg, i.v.) was administered at 24 h and 1 h before the challenge, propylene glycol (control) or a solution of the test compound in propylene glycol was orally administered at 1 h before and 3 h after the challenge, and pyrilamine (10 mg/kg, i.p.) was intraperitoneally administered at 30 min before the challenge. Air way resistance was measured by double flow plethysmography at 1 min, 4 h, 5 h, 6 h, 7 h, and 8 h after the challenge, and inhibitory effect of the test compound on the asthma was estimated based on the measurements obtained.

[3] = Metabolite found in plasma after oral administration of the compound of Example 1; assay type: in vivo; conditions: compound of Example 1 orally administered to guinea pig
Excerpt: The title compound was obtained by repeating substantially the same procedure as Example 1, except using 4-(3,5,6-trimethyl-1,4-benzoquinon-2-yl)-2-hydroxy-2-methylbutyric acid which had been prepared by oxidation of 6-hydroxy-2,5,7,8-tetramethylchroman-2-carboxylic acid with ammonium cerium (IV) nitrate (yield 62%).

[4] = concentration 0.25% (w/v) in acetone
[5] = concentration 0.75% (w/v) in acetone

## CCCCN(Cc1c(N)n(-c2ccccc2)c(=O)n(C)c1=O)C(=O)C1(C)CCc2c(C)c(O)c(C)c(C)c2O1 (stereo not drawn) [Example 19, 6-Amino-5-(N-butyl-6-hydroxy-2,5,7,8-tetramethylchroman-2-carboxamidomethyl)-3-methyl-1-phenyl-2,4 (1H, 3H)-pyrimidinedione]
[1]; [4]
  Inhibition (%) of picryl chloride-induced dermatitis: 49%

## Cc1c(C)c2c(c(C)c1O)CC[C@@](C)(C(=O)Nc1c(N)n(-c3ccccc3)c(=O)n(C)c1=O)O2 [Example 3, 6-Amino-5-(6-hydroxy-2,5,7,8-tetramethylchroman-2(S)-carboxamido)-3-methyl-1-phenyl-2,4 (1H, 3H) -pyrimidinedione]
[1]; [5]
  Inhibition (%) of picryl chloride-induced dermatitis: 69%

## COc1c(C)c(C)c2c(c1C)CCC(C)(C(=O)Nc1c(N)n(-c3ccccc3)c(=O)n(C)c1=O)O2 (stereo not drawn) [Example 13, 6-Amino-5-(6-methoxy-2,5.7,8-tetramethylchroman-2-carboxamido)-3-methyl-1-phenyl-2,4 (1H, 3H)-pyrimidinedione]
[1]; concentration 2.50% (w/v) in acetone
  Inhibition (%) of picryl chloride-induced dermatitis: 33%

## Cc1c(C)c2c(c(C)c1O)CCC(C)(CNc1c(N)n(-c3ccccc3)c(=O)n(C)c1=O)O2 (stereo not drawn) [Example 17, 6-Amino-5-[(6-hydroxy-2,5,7,8-tetramethyl-2-chromanylmethyl)amino]-3-methyl-1-phenyl-2,4 (1H, 3H) -pyrimidinedione]
[1]; [5]
  Inhibition (%) of picryl chloride-induced dermatitis: 80%

## Cc1c(C)c2c(c(C)c1O)CCC(C)(C(=O)Nc1c(N)n(-c3ccccc3)c(=O)n(C)c1=O)O2 (stereo not drawn) [Example 1, 6-Amino-5-(6-hydroxy-2,5,7,8-tetramethvlchroman-2-carboxamido)-3-methyl-1-phenyl-2,4 (1H. 3H)-pyrimidinedione]
[1]; [4]
  Inhibition (%) of picryl chloride-induced dermatitis: 69%
[2]; 1 min after the challenge
  inhibition on the air way reaction at 1 min after the challenge: 62%
[2]; AUC 4-8 h
  inhibition on the air way reaction (AUC) during 4-8 h after the challenge: 50%

## CNc1c(NC(=O)C2(C)CCc3c(C)c(O)c(C)c(C)c3O2)c(=O)n(C)c(=O)n1-c1ccccc1 (stereo not drawn) [Example 11, 5-(6-Hydroxy-2,5,7,8-tetramethvlchroman-2-carboxamido)-3-methyl-6-methylamino-1-phenyl-2,4 (1H, 3H) -pyrimidinedione]
[1]; [5]
  Inhibition (%) of picryl chloride-induced dermatitis: 44%

## CC1=C(C)C(=O)C(CCC(C)(O)C(=O)Nc2c(N)n(-c3ccccc3)c(=O)n(C)c2=O)=C(C)C1=O (stereo not drawn) [Example 15, 6-Amino-3-methyl-1-phenyl-5-[4-(3,5,6-trimethyl-1,4-benzoquinon-2-yl)-2-hydroxy-2-methylbutyramido]-2,4 (1H, 3H)-pyrimidinedione]
[1]; [5]
  Inhibition (%) of picryl chloride-induced dermatitis: 70%
[3]
  found in plasma as metabolite of the compound of Example 1: found in plasma a guinea pig as one of metabolites

## CC(=O)Oc1c(C)c(C)c2c(c1C)CCC(C)(C(=O)Nc1c(N)n(-c3ccccc3)c(=O)n(C)c1=O)O2 (stereo not drawn) [Example 14, 5-(6-Acetoxy-2.5,7,8-tetramethvlchroman-2-carboxamido)-6-amino-3-methyl-1-phenyl-2,4 (1H, 3H)-pyrimidinedione]
[1]; [5]
  Inhibition (%) of picryl chloride-induced dermatitis: 53%

## Cc1c(C)c2c(c(C)c1O)CC[C@](C)(C(=O)Nc1c(N)n(-c3ccccc3)c(=O)n(C)c1=O)O2 [Example 2]
[1]; [5]
  Inhibition (%) of picryl chloride-induced dermatitis: 65%
